These cell lines were tested with O=C(/C=C/c1ccccc1)NC(NC(=S)Nc1cccc2cccnc12)C(Cl)(Cl)Cl [Salubrinal] + CC(=O)c1c(C)c2cnc(Nc3ccc(N4CCNCC4)cn3)nc2n(C2CCCC2)c1=O [Palbociclib] (partner 0.5 µM) (assay: relative viability (nuclei count vs DMSO), 5 days (fraction); higher = more cells survive). Details: first compound 2.53 µM.
Outline: (§1)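 One day after seeding in 1536-well plates, lung cancer cell lines were dosed by pin tool. Dosing was either single-drug or a fixed anchor-drug dose plus five library-drug doses (not always all listed) in √10 steps. After 5 days, nuclei were stained in one fix-and-stain step and counted on 4× images, and relative viability is the nuclei count of treated wells over that of vehicle wells, given as the median of duplicate plates.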

Cell Line | relative viability
PC-14 | 0.47
EKVX | 0.412

Same assay, conditions: first compound 8 µM

Cell Line | relative viability
NCI-H522 | 1.13
NCI-H2342 | 0.531
NCI-H727 | 0.691
NCI-H1650 | 0.375
NCI-H1993 | 0.648
SW 1573 | 0.3
NCI-H838 | 0.214
LCLC-103H | 0.467
NCI-H520 | 0.271
NCI-H2126 | 0.386
EMC-BAC-2 | 0.524
NCI-H2085 | 0.427
HCC-366 | 0.315
NCI-H1666 | 0.603
LK-2 | 0.788
NCI-H2087 | 0.206
NCI-H358 | 0.138
NCI-H2170 | 0.372
H3255 | 0.332
COR-L23 | 0.208
COR-L 105 | 0.385

Cell Line | relative viability
LOU-NH91 | 0.569
ChaGo-K-1 | 0.837
NCI-H1793 | 0.287
NCI-H2405 | 0.521
HOP-62 | 0.481
HCC-44 | 1
SK-MES-1 | 0.259
LU99A | 0.447
BEN | 0.463
HARA | 0.236
SW 900 | 0.567
HCC-78 | 0.539
NCI-H322M | 0.518
LCLC-97TM1 | 0.265
NCI-H2009 | 0.172
A-427 | 0.538
NCI-H441 | 0.201
NCI-H661 | 0.398
NCI-H1734 | 0.343
NCI-H460 | 0.105
NCI-H2347 | 0.387

Cell Line | relative viability
SK-LU-1 | 0.341
NCI-H1395 | 0.587
201T | 0.374
NCI-H1915 | 0.568
HCC-827 | 0.48
LXF-289 | 0.578
NCI-H23 | 0.501
NCI-H647 | 0.347
CAL-12T | 0.328
NCI-H1651 | 0.508
EPLC-272H | 0.312
NCI-H2228 | 0.567
NCI-H1792 | 0.66
NCI-H1355 | 0.364
NCI-H3122 | 0.176
NCI-H1437 | 0.322
NCI-H1755 | 0.493
NCI-H2023 | 0.328
HCC-15 | 0.703
PC-14 | 0.384
EKVX | 0.37

What follows are cell lines tested with O=C(/C=C/c1ccccc1)NC(NC(=S)Nc1cccc2cccnc12)C(Cl)(Cl)Cl [Salubrinal] + O=C(c1cc(Cc2n[nH]c(=O)c3ccccc23)ccc1F)N1CCN(C(=O)C2CC2)CC1 [Olaparib] (partner 8 µM) in the same assay as above. Details: first compound 0.08 µM.
Outline: as §1

Cell Line | relative viability
NCI-H522 | 0.565
NCI-H2342 | 0.456
NCI-H727 | 0.804
NCI-H1650 | 0.941
EBC-1 | 0.787
NCI-H1703 | 0.414
NCI-H1993 | 0.867
SW 1573 | 0.607
NCI-H838 | 0.896
LCLC-103H | 0.866
NCI-H520 | 0.334
NCI-H2126 | 1.01
EMC-BAC-2 | 0.496
NCI-H2085 | 0.804
Calu-6 | 0.632
HCC-366 | 0.459
NCI-H1666 | 0.713
